Measurements as given in patent US20240122865A1, “Methods of Protecting RNA” (Pfizer Inc., priority 2021, published 2024).
pEC50: −log10 of the molar value. “And” between values parts separate entries of the source, which are not always exact repeats. Equal entries are not always repeated.

Columns and labels:
FgenL mRNA construct = experiment: Size Exclusion Base Hydrolysis Degradation Assay, FgenL; assay type: biochemical, Trichoderma atroviride; settings: 25 mM amino acid; for T0 R1 peak area at 250 nm: FgenL 0.1 mg/mL, 50 mM CAPS, T=0, replicate 1; for T2 R1 peak area at 250 nm / T2 Avg, peak area as percentage of T=0 / T10 R1 peak area at 250 nm / T10 Avg, peak area as percentage of T=0 / T24 Avg, peak area as percentage of T=0 / T24 R1 peak area at 250 nm / T0 Avg, peak area as percentage of T=0: FgenL; for T2 R1 peak area at 250 nm / T2 Avg, peak area as percentage of T=0 / T10 R1 peak area at 250 nm / T10 Avg, peak area as percentage of T=0 / T24 Avg, peak area as percentage of T=0 / T24 R1 peak area at 250 nm: 50 mM CAPS pH 11, room temperature; for T2 R1 peak area at 250 nm / T2 Avg, peak area as percentage of T=0: 2 hrs; for T2 R1 peak area at 250 nm / T10 R1 peak area at 250 nm / T24 R1 peak area at 250 nm: replicate 1; for T10 R1 peak area at 250 nm / T10 Avg, peak area as percentage of T=0: 10 hrs; for T24 Avg, peak area as percentage of T=0 / T24 R1 peak area at 250 nm: 24 hrs; for T0 Avg, peak area as percentage of T=0: T=0 (reference)
Experimental: Basic assay procedure: RNA samples were diluted to 1.0 mg/mL in DNAase/RNAase free water. Amino acids were dissolved in water to a stock solution of 100 mM and a solution of 500 mM CAPS pH 11 was used. The two mRNA constructs tested were FgenL and Chi18. Each individual sample volume was 50 μL. To determine the amount of 1 M NaOH needed to adjust the final pH to 11.0 after the addition of all sample components, the sample volume was increased 100 fold (5 mL), the volume of 1 M NaOH recorded and this value was translated back down to the 50 μL sample volume.
The mRNA and amino acid were allowed to incubate for one hour prior to the addition of CAPS pH 11. All steps of the assay were conducted at room temperature.
Degradation reaction: After the CAPS addition, the samples were injected onto the Waters H-Class UPLC system to record the first timepoint, T=O. This resulting chromatogram was processed by integrating the area of absorbance at 250 nm for the mRNA construct. Immediately following this timepoint, the pH was adjusted to 11. Subsequent time points (2 hrs, 10 hrs, and 24 hrs) recorded the Absorbance Units (peak area) at 250 nm as a percentage of the peak area determined at T=O. Integration of the chromatogram for subsequent timepoints was conducted by analyzing the area of absorbance at 250 nm contained within the same time window in which the peak eluted in T=0 for the 100% intact mRNA.

Chi18 model RNA = experiment: Droplet Digital Polymerase Chain Reaction (ddPCR) Assay, Chi18; assay type: biochemical, Trichoderma atroviride; settings: percent protection, pH 11.0, 30° C., 16 hours, n = 2
Experimental: The ddPCR assays measure RNA integrity by converting intact RNA to cDNA by reverse transcription, then performing digital PCR in thousands of nanoliter-sized droplets for each sample. PCR is performed within each droplet, which allows for more sensitive detection of subtle changes in RNA concentration compared to traditional PCR or qPCR. Additionally, primers/probes specific to the 5′ end of the RNA/cDNA transcript(s) are used to assess fragment integrity—e.g. degraded RNA will have fewer 5′ positive droplets. The BioRad QX200 Droplet Digital PCR System was used for the ddPCR workflow.
Basic assay procedure: RNA samples (Chi18 or FgenL fragments) were diluted to 25 fg/μL or 10 fg/μL, respectively, in 50 mM […] buffer pH 11.0. Amino acid stocks were made up in 50 mM CAPS buffer, pH 11.0 and subsequently re-adjusted to pH 11.0, post solubilization. Amino acid stocks were tested in a dose-response format to determine EC50. An amino acid dilution plate containing a ˜300 mM (or appropriate) top-concentration of amino acid in 50 mM CAPS buffer was serially (half-log) diluted for 10 times. 0.6 μL of this compound dilution plate was spotted into a 96-well PCR plate (Thermo). Sample RNAs were added (6 μL) and incubated with test amino acid as described below.
Degradation reaction: Treated RNAs were incubated for 16 hours at 30° C. for Chi18 samples or 44° C. for FgenL samples. Upon completion of the degradation reaction, cDNA was made from the intact RNA by Reverse Transcription and ddPCR run for each sample (96 well plates). Positive 5′ droplet values were divided by the total accepted droplet values for each sample and a ratio value generated for each sample.
EC50 was determined by using a four parameter logistic equation: Y=A+((B−A)/(1+(C/X)D)); where Y is percent protection, X is compound concentration, A and B are minimum and maximum asymptotes, respectively, C is EC50, and D is Hill slope.

Row | SMILES | T0 R1 peak area at 250 nm (FgenL mRNA construct; listed as Cys) | T2 R1 peak area at 250 nm (FgenL mRNA construct; listed as Cys) | T2 Avg, peak area as percentage of T=0 (FgenL mRNA construct; listed as Cys) | T10 R1 peak area at 250 nm (FgenL mRNA construct; listed as Cys) | T10 Avg, peak area as percentage of T=0 (FgenL mRNA construct; listed as Cys) | T24 Avg, peak area as percentage of T=0 (FgenL mRNA construct) | T24 R1 peak area at 250 nm (FgenL mRNA construct) | T0 Avg, peak area as percentage of T=0 (FgenL mRNA construct) | pEC50 (Chi18 model RNA) | T0 R1 peak area at 250 nm (FgenL mRNA construct) | T2 Avg, peak area as percentage of T=0 (FgenL mRNA construct) | T2 R1 peak area at 250 nm (FgenL mRNA construct) | T10 Avg, peak area as percentage of T=0 (FgenL mRNA construct) | T10 R1 peak area at 250 nm (FgenL mRNA construct)
1 | N[C@@H](CS)C(=O)O [Cysteine] | 23851 and 18041 | 17633 and 6085 | 58.8% and 30.1% | 3767 and 0 | 8.8% and 0.0% | 0.0% | 0 | 100.0% | < 1.52 | – | – | – | – | –
2 | CC[C@H](C)[C@H](N)C(=O)O [Isoleucine] | – | – | – | – | – | 0.0% | 0 | 100.0% | < 1.72 | 14903 | 7.2% | 1687 | 0.0% | 0
3 | NC(=O)C[C@H](N)C(=O)O [Asparagine] | – | – | – | – | – | 0.0% | 0 | 100.0% | 2.31 | 14320 | 35.9% | 6791 | 0.0% | 0
4 | C[C@H](N)C(=O)O [Alanine] | – | – | – | – | – | 0.0% | 0 | 100.0% | < 1.52 | 17478 | 44.3% | 7051 | 0.0% | 0
5 | CC(C)[C@H](N)C(=O)O [Valine] | – | – | – | – | – | 0.0% | 0 | 100.0% | < 1.52 | 17745 | 22.8% | 4305 | 0.0% | 0
6 | NCC(=O)O [Glycine] | – | – | – | – | – | 0.0% | 0 | 100.0% | 1.82 | 18897 | 29.3% | 3657 | 0.0% | 0
7 | N[C@@H](Cc1ccc(O)cc1)C(=O)O [Tyrosine] | – | – | – | – | – | 5.6% | 912 | 100.0% | < 1.52 | 22082 | 64.7% | 13039 | 15.0% | 1912
8 | N[C@@H](CCC(=O)N[C@@H](CS)C(=O)NCC(=O)O)C(=O)O [Glutathione] | – | – | – | – | – | 0.0% | 0 | 100.0% | < 1.52 | 16850 | 37.7% | 4627 | 2.3% | 0
9 | NC(=O)CC[C@H](N)C(=O)O [Glutamine] | – | – | – | – | – | 0.0% | 0 | 100.0% | 2.06 | 15510 | 25.9% | 5779 | 0.0% | 0
10 | O=C(O)[C@@H]1CCCN1 [Proline] | – | – | – | – | – | 0.0% | 0 | 100.0% | < 1.52 | 17907 | 16.6% | 3380 | 0.0% | 0
11 | N[C@@H](CO)C(=O)O [Serine] | – | – | – | – | – | 0.0% | 0 | 100.0% | < 1.52 | 17044 | 46.6% | 7928 | 11.3% | 0
12 | N[C@@H](Cc1ccccc1)C(=O)O [Phenylalanine] | – | – | – | – | – | 0.0% | 0 | 100.0% | < 1.74 | 18152 | 62.2% | 12662 | 1.7% | 605
13 | O=C(O)[C@@H]1C[C@@H](O)CN1 [Hydroxyproline] | – | – | – | – | – | 0.0% | 0 | 100.0% | < 1.52 | 16626 | 22.4% | 5048 | 0.0% | 0
14 | N[C@@H](Cc1c[nH]c2ccccc12)C(=O)O [Tryptophan] | – | – | – | – | – | 0.0% | 0 | 100.0% | < 1.52 | 15191 | 30.2% | 4991 | 0.0% | 0
15 | C[C@@H](O)[C@H](N)C(=O)O [Threonine] | – | – | – | – | – | 0.0% | 0 | 100.0% | < 1.52 | 17711 | 47.3% | 8436 | 2.6% | 904
16 | CC(C)C[C@H](N)C(=O)O [Leucine] | – | – | – | – | – | 0.0% | 0 | 100.0% | < 1.60 | 13599 | 27.3% | 4569 | 0.0% | 0
17 | CSCC[C@H](N)C(=O)O [Methionine] | – | – | – | – | – | 0.0% | 0 | 100.0% | < 1.52 | 15213 | 24.2% | 3658 | 0.0% | 0
